The results in this text go back to PubChem BioAssay (NCI).

Some test systems named below: ACHN renal; CCRF-CEM leukemia; COLO 205 colon; EKVX NSCLC; HOP-62 NSCLC; HS 578T breast; IGROV1 ovarian; KM12 colon; MCF7 breast; NCI-H522 lung; OVCAR-4 ovarian; OVCAR-5 ovarian; SF-539 CNS; SNB-75 CNS; T-47D breast.
What all share (test): NCI-60 cell line screen, 48 h

“And” between values parts separate entries of the source, which are not always exact repeats. Identical values can stand only once.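 A five-concentration, 48-hour dose response in 96-well plates underlies each endpoint, interpolated linearly between surrounding concentrations. GI50 = concentration required for 50% inhibition of growth. The concentration for full growth arrest is given as TGI.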 *1 amine or outer side, *2 acyl side, *3 side chain or, on linkers, in order; H or OH if unused. Where a SMILES comes first, the peptide text is derived from it. [ ]: non-standard residue; d: D form. The star is where a group is joined. X31 = CC(=O)N(C)SCC(N[*:1])C(=O)[*:2]; Fmoc = O=C(OCC1c2ccccc2-c2ccccc21)*; For = O=C*

Regarding `N#CCN(Cc1ccccc1)[C@@H]1CCC[C@]1(O)C#Cc1ccc2c(c1)OCO2`, the TGI in the experiment on ACHN renal stood at 36 µM; in the experiment on CCRF-CEM leukemia, 48.1 µM; in the experiment with COLO 205 colon, 32.3 µM; with EKVX NSCLC, 55.5 µM; in the experiment with HOP-62 NSCLC, 30.8 µM; with HS 578T breast, 37.2 µM. Also, the TGI in the experiment on IGROV1 ovarian worked out at 39.7 µM; in the experiment with KM12 colon, 35.4 µM; in the experiment on MCF7 breast it was 37.9 µM; in the experiment with NCI-H522 lung it was 33.7 µM; with OVCAR-4 ovarian, 31.2 µM; in the experiment on OVCAR-5 ovarian, 33.5 µM. Besides, the TGI is 42.3 µM in the experiment on SF-539 CNS, greater than 100 µM with SNB-75 CNS and 69.5 µM in the experiment with T-47D breast.
Turning to `OC1(c2ccc3ccccc3c2)c2c(c3ccccc3c3ccccc23)C2=NCCN21` (configuration not stated), the TGI with ACHN renal is greater than 100 µM; in the experiment on CCRF-CEM leukemia, greater than 100 µM; with COLO 205 colon it was 4.17 µM; with EKVX NSCLC, 36.3 µM; in the experiment on HOP-62 NSCLC it was 23.3 µM; in the experiment with HS 578T breast it was 24.2 µM. The TGI in the experiment on IGROV1 ovarian is 24 µM; with KM12 colon, 6.12 µM; in the experiment on MCF7 breast, 15.8 µM; in the experiment on NCI-H522 lung it was 24.8 µM; in the experiment with OVCAR-4 ovarian, 13.9 µM; with OVCAR-5 ovarian, greater than 83.7 µM. Further, the TGI with SF-539 CNS is 13.1 µM; in the experiment on SNB-75 CNS, 14.7 µM; in the experiment with T-47D breast, greater than 40.6 µM.
`O=C(O)CO/N=C1/C(c2c(O)[nH]c3ccccc23)=Nc2ccccc21`: the TGI in the experiment with ACHN renal, in the experiment on CCRF-CEM leukemia, with COLO 205 colon, in the experiment with EKVX NSCLC, in the experiment with HOP-62 NSCLC and with HS 578T breast was greater than 100 µM throughout. In addition, the TGI with IGROV1 ovarian, in the experiment with KM12 colon, in the experiment on MCF7 breast, in the experiment on NCI-H522 lung, with OVCAR-4 ovarian and in the experiment with OVCAR-5 ovarian was greater than 100 µM in each case. In addition, the TGI in the experiment with SF-539 CNS is greater than 100 µM; with SNB-75 CNS it was 74.4 µM; in the experiment with T-47D breast, greater than 100 µM.
As for `CCCCCCC(=O)OC[n+]1cccc(-c2c(COC(=O)NC(C)C)c(COC(=O)NC(C)C)c3n2CCC3)c1`, the TGI was 89.1 µM with ACHN renal; greater than 66.5 µM in the experiment with CCRF-CEM leukemia; greater than 100 µM with COLO 205 colon; greater than 100 µM in the experiment with EKVX NSCLC; greater than 100 µM in the experiment on HOP-62 NSCLC; greater than 100 µM in the experiment on HS 578T breast. Besides, the TGI with IGROV1 ovarian is greater than 86.6 µM; with KM12 colon, greater than 100 µM; in the experiment with MCF7 breast, greater than 100 µM; in the experiment on NCI-H522 lung it was 43.6 µM; in the experiment on OVCAR-4 ovarian it was greater than 69.1 µM; in the experiment with OVCAR-5 ovarian, greater than 100 µM. Besides, the TGI is greater than 75 µM in the experiment with SF-539 CNS, greater than 100 µM with SNB-75 CNS and greater than 100 µM with T-47D breast.
Consider `CC(C)OP(=O)(OC(C)C)C(Nc1cccc(C(F)(F)F)c1)c1ccccc1` (configuration not stated), for which the TGI in the experiment on ACHN renal was greater than 100 µM; with CCRF-CEM leukemia it was greater than 100 µM; in the experiment with COLO 205 colon, 84 µM; in the experiment on EKVX NSCLC, greater than 100 µM; with HOP-62 NSCLC, greater than 100 µM; in the experiment on HS 578T breast it was greater than 100 µM. Further, the TGI with IGROV1 ovarian, in the experiment with KM12 colon, with MCF7 breast, with NCI-H522 lung, in the experiment with OVCAR-4 ovarian and in the experiment with OVCAR-5 ovarian was greater than 100 µM in each case. Also, the TGI in the experiment on SF-539 CNS, in the experiment on SNB-75 CNS and in the experiment with T-47D breast was greater than 100 µM in each case.
As for `CC(=O)/C(=C(/Br)I)c1ccccc1`, the TGI with ACHN renal was 27.6 µM; in the experiment on CCRF-CEM leukemia it was 11.3 µM; with COLO 205 colon it was 26.4 µM; in the experiment on EKVX NSCLC, 26.5 µM; with HOP-62 NSCLC, 29.7 µM; in the experiment on HS 578T breast, greater than 66 µM. The TGI in the experiment with IGROV1 ovarian was found to be 49.3 µM; in the experiment on KM12 colon it was 28.2 µM; in the experiment with MCF7 breast, 19.1 µM; in the experiment on NCI-H522 lung, 3.11 µM; with OVCAR-4 ovarian, 25 µM; with OVCAR-5 ovarian it was 32.1 µM. Moreover, the TGI with SF-539 CNS is 47.8 µM; with SNB-75 CNS, 39.6 µM; in the experiment on T-47D breast it was 13.3 µM.
With `C(=N/NC1=NCCN1)/c1c2ccccc2c(/C=N\NC2=NCCN2)c2ccccc12`, the TGI is 1.26 µM and 3.97 µM with ACHN renal; 1.92 µM and 1.13 µM and 1.33 µM in the experiment on CCRF-CEM leukemia; 0.366 µM and 0.609 µM and 1.41 µM with COLO 205 colon; 2.32 µM and 2.94 µM and 1.57 µM in the experiment on EKVX NSCLC; 0.611 µM and 1.75 µM and 0.597 µM in the experiment on HOP-62 NSCLC; 0.262 µM and 0.591 µM with HS 578T breast. The TGI with IGROV1 ovarian was 0.661 µM and 3.09 µM and 4.75 µM; in the experiment with KM12 colon it was 0.816 µM and 0.96 µM and 2 µM; in the experiment on MCF7 breast, 0.788 µM and 3.14 µM and 3.88 µM; in the experiment on NCI-H522 lung, 0.214 µM and 0.262 µM and 0.387 µM; in the experiment on OVCAR-4 ovarian, 0.4 µM and 0.584 µM and 1.1 µM; with OVCAR-5 ovarian, 1.38 µM and 0.95 µM and 0.793 µM. In addition, the TGI in the experiment with SF-539 CNS is 0.345 µM and 0.857 µM and 0.402 µM; in the experiment with SNB-75 CNS, 0.054 µM and 0.426 µM and 0.44 µM; with T-47D breast, 0.939 µM and 4.13 µM. Besides, the GI50 with HS 578T breast is 0.0844 µM; in the experiment on T-47D breast it was 0.174 µM.
With `CC1=C(C(=O)NC(C)(C)C)CC(C(=O)NC(C)(C)C)C(C)N1` (configuration not stated), the TGI in the experiment on ACHN renal, in the experiment with CCRF-CEM leukemia, in the experiment with COLO 205 colon, with EKVX NSCLC, in the experiment on HOP-62 NSCLC and with HS 578T breast was greater than 100 µM in each case. Moreover, the TGI with IGROV1 ovarian, in the experiment on KM12 colon, in the experiment on MCF7 breast, in the experiment with NCI-H522 lung, in the experiment with OVCAR-4 ovarian and in the experiment with OVCAR-5 ovarian was greater than 100 µM throughout. The TGI in the experiment on SF-539 CNS, with SNB-75 CNS and with T-47D breast was greater than 100 µM throughout.
As to `Cc1ncc(CO)c(C=NCCCCCCN=Cc2c(CO)cnc(C)c2O)c1O`, the TGI with ACHN renal, in the experiment with CCRF-CEM leukemia, in the experiment with COLO 205 colon, in the experiment with EKVX NSCLC, in the experiment on HOP-62 NSCLC and with HS 578T breast was greater than 100 µM throughout. Further, the TGI in the experiment on IGROV1 ovarian, in the experiment on KM12 colon, with MCF7 breast, in the experiment on NCI-H522 lung, in the experiment with OVCAR-4 ovarian and in the experiment with OVCAR-5 ovarian was greater than 100 µM in each case. In addition, the TGI in the experiment with SF-539 CNS, in the experiment on SNB-75 CNS and with T-47D breast was greater than 100 µM each time.
As for `C=CC[C@H]1[C@H](O[Si](C)(C)C(C)(C)C)C=CC(=O)[C@@H]1CC(=O)OCC`, the TGI in the experiment with ACHN renal was 27.2 µM; in the experiment with CCRF-CEM leukemia it was 29.9 µM; in the experiment with COLO 205 colon, 28.6 µM; in the experiment on EKVX NSCLC it was 24.2 µM; with HOP-62 NSCLC it was 34.5 µM; in the experiment with HS 578T breast it was 43.4 µM. Also, the TGI in the experiment with IGROV1 ovarian was found to be 32.8 µM; in the experiment on KM12 colon, 27.2 µM; in the experiment with MCF7 breast it was 23.7 µM; in the experiment with NCI-H522 lung, 26.1 µM; in the experiment with OVCAR-4 ovarian, 25.2 µM; with OVCAR-5 ovarian, 27.1 µM. In addition, the TGI in the experiment on SF-539 CNS stood at 30.8 µM; in the experiment on SNB-75 CNS it was 30.1 µM; with T-47D breast, 24.7 µM.
As for `CC(=O)N(C)SCC(NC(=O)C(Cc1ccccc1)NC(=O)OCC1c2ccccc2-c2ccccc21)C(=O)NC(Cc1ccccc1)C(=O)NC(Cc1cn(C=O)c2ccccc12)C(=O)NC(CCCCNC(=O)OCC1c2ccccc2-c2ccccc21)C(=O)NC(C(=O)NC(CSN(C)C(C)=O)C(=O)NC(C(N)=O)C(C)O)C(C)O` (configuration not stated) (Fmoc-F[X31]FW(For)K(Fmoc)T[X31]T-NH2; configuration not given here), the TGI with ACHN renal, in the experiment on CCRF-CEM leukemia, in the experiment with COLO 205 colon, with EKVX NSCLC, with HOP-62 NSCLC and in the experiment on HS 578T breast was greater than 100 µM throughout. Also, the TGI in the experiment with IGROV1 ovarian is greater than 100 µM; in the experiment on KM12 colon, 64.5 µM; with MCF7 breast, greater than 100 µM; with NCI-H522 lung, greater than 100 µM; in the experiment on OVCAR-4 ovarian it was greater than 100 µM; in the experiment with OVCAR-5 ovarian, greater than 100 µM. The TGI in the experiment with SF-539 CNS, in the experiment on SNB-75 CNS and in the experiment on T-47D breast was greater than 100 µM each time.
For the molecule `COc1nc(C)nc2c1ncn2Cc1ccccc1`, the TGI with ACHN renal, with CCRF-CEM leukemia, in the experiment on COLO 205 colon, in the experiment with EKVX NSCLC, in the experiment on HOP-62 NSCLC and with HS 578T breast was greater than 100 µM in each case. Further, the TGI in the experiment on IGROV1 ovarian, with KM12 colon, in the experiment with MCF7 breast, with NCI-H522 lung, in the experiment on OVCAR-4 ovarian and in the experiment on OVCAR-5 ovarian was greater than 100 µM each time. In addition, the TGI in the experiment with SF-539 CNS, with SNB-75 CNS and in the experiment on T-47D breast was greater than 100 µM each time.
As for `NCCC1([N+](=O)[O-])CCNCC1`, the TGI in the experiment on ACHN renal, in the experiment on CCRF-CEM leukemia, with COLO 205 colon, in the experiment with EKVX NSCLC, in the experiment with HOP-62 NSCLC and in the experiment with HS 578T breast was greater than 100 µM throughout. The TGI in the experiment with IGROV1 ovarian, in the experiment on KM12 colon, in the experiment with MCF7 breast, in the experiment with NCI-H522 lung, with OVCAR-4 ovarian and in the experiment on OVCAR-5 ovarian was greater than 100 µM each time. In addition, the TGI in the experiment on SF-539 CNS, in the experiment on SNB-75 CNS and in the experiment on T-47D breast was greater than 100 µM each time.
